From US8022052B2, “Inhibition of PPAR gamma expression by specific osteogenic oxysterols” (The Regents of the University of California, priority 2006, dated 2011)
Entries after “also recorded” stand apart in the source; their conditions may differ.

Assays:
[1] = tested on: murine PPARγ2 promoter; assay: PPARγ2 promoter luciferase activity induced by C/EBPα overexpression in M2 cells; format: cell-based, mouse; settings: p19-PPARγ2 with MSV-C/EBPα plasmid, 24 h
Protocol: For PPARγ promoter activity assays, M2 cells were transiently transfected with a murine PPARγ2 promoter construct luciferase plasmid (p19-PPARγ2; (kind gift of Dr Steven McKnight), along with MSV-C/EBPα overexpression plasmid (kind gift of Dr. Sophia Tsai) and pTK-Renilla-Luciferase plasmid. Luciferase activity was measured after 24 h and normalized for transfection efficiency using the Renilla Luciferase activity.
To determine if 20S and Shh inhibit PPARγ expression by acting directly on its promoter, we focused on C/EBPα regulated PPARγ promoter activity.
(§1) After 10 days, adipocyte formation was measured by Oil red O staining. The number of adipocytes was determined by counting Oil red O-positive cells in five separate fields per well, in three wells per experimental condition. […] After 48 h, PPARγ mRNA expression was measured by quantitative real-time PCR. […] Luciferase activity was measured after 24 h and normalized for transfection efficiency using the Renilla luciferase activity.

[2] = tested on: GATA2, GATA3, Gilz, and pref-1; assay: GATA2, GATA3, Gilz and pref-1 expression in M2 cells by RT-qPCR; format: cell-based, mouse; settings: 24 and 48 h, data not shown
From the text: (§2) Total RNA was extracted with the RNA isolation kit from Stratagene (La Jolla, Calif., USA) according to the manufacturer's instructions. RNA was DNase-treated using DNA-free kit from Ambion (Austin, Tex., USA). Three micrograms of RNA was reverse-transcribed using reverse transcriptase from Stratagene to make single-stranded cDNA. The cDNA was mixed with Qi SYBR Green Supermix (Bio-Rad) for quantitative RT-PCR assay using a Bio-Rad I-cycler IQ quantitative thermocycler. All PCR samples were prepared in triplicate wells of a 96-well plate. After 40 cycles of PCR, melt curves were examined to ensure primer specificity. Fold changes in gene expression were calculated using the ΔΔCt method. […] Primers used are as follows: PPARγ2 (5′-[…]-3′ and 5′-[…]-3′), C/EBPα (5′-[…]-3′ and 5′-[…]-3′), ap2 (5′-[…]-3′ and 5′-[…]-3′), LPL (5′-[…]-3′ and 5′-[…]-[…]), GATA2 (5′-[…]-3′ and 5′-[…]-3′), GATA3 (5′-[…]-3′ and 5′-[…]-3′), GILZ (5′-[…]-3′ and 5′-[…]-3′), and pref-1 (5′-[…]-3′ and 5′-[…]-3′).

[3] = tested on: M2-10B4 (M2) murine pluripotent bone MSC line; settings: cited from earlier work
[4] = tested on: GATA; assay: GATA luciferase reporter in M2 cells; format: cell-based, mouse; settings: 24 and 48 h, data not shown
From the text: (§3) M2 cells at 70% confluency in a 24-well plate were transiently transfected with: a plasmid containing three tandem repeats of the PPAR response element (PPRE) upstream of the basic thymidine kinase promoter (p3xPPRE-TK-Luciferase), a control pTK-Luciferase plasmid devoid of PPRE, a CMX-PPARγ expression plasmid (all kind gifts of Dr Peter Tontonoz), a CMX-RXRα expression plasmid (kind gift of Dr Sotirios Tetradis), and a pTK-Renilla-Luciferase plasmid (Promega, Madison, Wis., USA) using Fugene 6 Transfection Reagents from Roche (Indianapolis, Ind., USA). Luciferase activity assay was performed using Dual-Luciferase Reporter 1000 Assay System (Promega, Madison, Wis., USA). Luciferase reporter activity was normalized to Renilla Luciferase activity. […] For GATA reporter assays, M2 cells were transfected with a GATA Luciferase reporter vector or a control reporter vector (both from Panomics, Fremont, Calif., USA), and pTK-Renilla-Luciferase plasmid.

[5] = tested on: aP2; assay: aP2 mRNA expression in M2 cells by quantitative real-time PCR; format: cell-based, mouse; settings: 10 μM Tro, 5 μM 20S, 24, 48, 96 hours
Protocol: . M2 cells at confluence were treated with control vehicle, 10 μM Tro, or 5 μM 20S, alone or in combination for 24 hours (FIG. 4A), 48 hours (FIG. 4B), and 96 hours (FIG. 4C). aP2 mRNA expression was measured by quantitative real-time PCR. Fold changes in gene expression relative to the control were calculated using the ΔΔCt method and reported as the mean of triplicate determination ±SD (p<0.0001 for Tro or Tro+20S vs. control or 20S and p<0.01 for Tro vs. Tro+20S at 24 hours (FIG. 4A); p<0.0001 for Tro or Tro+20S vs. control or 20S and for Tro vs. Tro+20S at 48 hours (FIG. 4B); p<0.0001 for Tro vs. control, 20S, or Tro+20S and p<0.001 for Tro+20S vs. control or 20S at 96 hours (FIG. 4C)).

[6] = tested on: C/EBPα; assay: C/EBPα mRNA expression in M2 cells by quantitative real-time PCR; format: cell-based, mouse; settings: 10 μM Tro, 5 μM 20S, 24, 48, 96 hours
Protocol: . M2 cells at confluence were treated with control vehicle, 10 μM Tro, or 5 μM 20S, alone or in combination for 24 (FIG. 3A), 48 (FIG. 3B), and 96 (FIG. 3C) hours. C/EBPα mRNA expression was measured by quantitative real-time PCR. Fold changes in gene expression relative to the control were calculated using the ΔΔCt method and reported as the mean of triplicate determination ±SD (p<0.0001 for Tro vs. control and p<0.001 for Tro+20S vs. control at 24 hours (FIG. 3A); p<0.0001 for Tro vs. control and p<0.001 for Tro+20S vs. control at 48 hours (FIG. 3B); p<0.0001 for Tro or Tro+20S vs. control at 96 hours (FIG. 3C).

[7] = tested on: PPARγ; assay: PPRE luciferase reporter assay (PPARγ transcriptional activity) in M2 cells; format: cell-based, mouse
From the text: as §3
M2 cells were transiently transfected with a reporter construct containing three tandem repeats of a PPRE (pTK-3×PPRE-Luciferase) or the control plasmid (pTK-Luciferase). Cells were treated with 10 μM Tro or control vehicle, and luciferase activity was measured after 24 and 48 h. […] Because PPARγ and retinoid X receptor (RXR) form obligatory heterodimers, we studied whether 20S would have an effect when both PPARγ and RXRα were overexpressed. […] Luciferase activity was measured after 24 hours and normalized for transfection efficiency using the Renilla luciferase activity. […] Luciferase activity was normalized for transfection efficiency using the Renilla luciferase activity. […] Luciferase activity was measured after 24 hours and normalized to the Renilla luciferase activity.

[8] = tested on: M2-10B4 (M2) murine pluripotent bone MSC line; assay: Tro-induced adipocyte formation in M2 cells, Oil red O staining; format: cell-based, mouse; settings: M2 cells, 10 μM Tro, oxysterol 5 μM, 10 days
Protocol: (§4) M2 mouse MSCs were purchased from American Type Culture Collection (ATCC, Rockville, Md., USA). […] Cell culture was performed in 24- and 6-well plates for adipogenic differentiation and gene expression studies, respectively, and treatment with test agents was done in growth medium.
Oil red O staining for detection of adipocytes was performed as previously described. […] The number of adipocytes was quantitated by counting Oil red O-positive cells in five separate fields per well, in three wells per experimental condition. The results are reported as the mean of triplicate determination ±SD.
(§5) Adipocyte formation was examined by Oil red O staining. […] PPARγ expression was assessed by RT-qPCR after treating M2 cells with Tro in the presence or absence of 20S. […] M2 cells at confluence were treated with control vehicle, 10 μM Tro, or 5 μM 20S, alone or in combination for 24 hours (FIG. 2A), 48 hours (FIG. 2B), and 96 hours (FIG. 2C). PPARγ mRNA expression was measured by quantitative real-time PCR.
as §1
Synthetic oxysterol compounds were studied for inhibition of adipogenesis and PPAR expression. […] After 10 days of treatment, cells were stained with Oil-red-O to detect adipocytes, and the number of positively stained cells was determined using light microscopy. Data from a representative experiment are reported as the mean of triplicate determination (average of five fields per well, 3 wells per experimental condition) ±SD.

[9] = tested on: PPARγ; assay: PPARγ mRNA expression in M2 cells by RT-qPCR; format: cell-based, mouse; settings: M2 cells, 10 μM Tro, oxysterol 5 μM; 24, 48, 96 h (20S), 48 h (Oxy13)
Protocol: as §4, §2, §5, §1
After 48 hours of treatment, RNA was extracted from cells and analyzed for PPARγ expression by Q-RT-PCR. Data from a representative experiment, normalized to GAPDH expression, are reported as the mean of triplicate determinations ±SD.

[10] = tested on: LXRs; assay: LXR activation in M2 cells; format: cell-based, mouse; settings: data not shown

For `CC(C)CCC[C@](C)(O)[C@H]1CC[C@H]2[C@@H]3CC=C4C[C@@H](O)CC[C@]4(C)[C@H]3CC[C@@]21C` [Oxy 20S, 20(S)-hydroxycholesterol], the “inhibition of PPARγ2 promoter activity induced by C/EBPα overexpression” value [1] is given as “greatly inhibited; also recorded: inhibit; also recorded: significantly inhibited”, the “GATA2/GATA3, Gilz, and pref-1 gene expression” value [2] is given as “does not increase” and the “adipogenic differentiation of M2 cells (previously reported)” value [3] is given as “inhibit”. For the same compound, the GATA transcriptional activity [4] was “does not increase”, the “effect of 20S on Tro-induced aP2 mRNA expression” value [5] was “inhibited” and the “effect of 20S on Tro-induced C/EBPα mRNA expression” value [6] was “did not inhibit”. For the same compound, the “effect of 20S on Tro-induced PPRE reporter activity (PPARγ transcriptional activity)” value ([7]; M2 cells overexpressing PPARγ) was “did not inhibit but rather enhanced; also recorded: not inhibited but rather enhanced; also recorded: does not inhibit”, the “effect of 20S on PPARγ-RXRα induced PPRE reporter activity” value ([7]; M2 cells overexpressing PPARγ and RXRα, 24 hours) was “did not inhibit; also recorded: enhanced” and the “effect of 20S on Tro-induced PPRE reporter activity” value ([7]; M2 cells without PPARγ overexpression, 24 hours) was “did not inhibit Tro-induced PPRE reporter activity, but instead caused a small but significant increase”. The “inhibition of Tro-induced adipocyte formation” value [8] was “completely inhibited; also recorded: significantly inhibited”, the “inhibition of Tro-induced PPARγ mRNA expression” value [9] was “completely inhibited; also recorded: almost completely blocked; also recorded: specifically inhibited; also recorded: inhibits” and the “activation of LXRs” value [10] was “activation”.
